Test results reported in patent US11976137B2, “Compounds for use as apelin receptor antagonists” (Cambridge Enterprise Limited, priority 2018, dated 2024).
pKi: −log10 of the molar value. Where “and” joins values, the source holds several entries; their conditions need not be identical. Identical values can stand only once. Like-named read-outs stand apart in the source and are kept apart here. Positions of bridges follow the written chain, without caps; N, C: chain ends. Non-standard residues stand in square brackets, D forms with d. Residues, ends and D or L forms follow the SMILES beside them. *: point of attachment. Phe(3,4,5-F3) = N[C@@H](Cc1cc(F)c(F)c(F)c1)C(=O)O; Myristoyl = CCCCCCCCCCCCCC(=O)*; Nle = CCCC[C@H](N)C(=O)O; Abu = CC[C@H](N)C(=O)O; Aib = CC(C)(N)C(=O)O

Assays:
glioblastoma = details: ref. [60], cited from earlier work; for anti-tumor / anti-cancer effects in glioblastoma: models of glioblastoma
human forearm = assay: Human forearm studies; type: in vivo
human apelin receptor [1] = molecular target: T1, human apelin receptor (Homo sapiens, UniProt P35414); assay: Competition binding in homogenate of human left ventricle (HLV)
T1 sequence (P35414 1-380): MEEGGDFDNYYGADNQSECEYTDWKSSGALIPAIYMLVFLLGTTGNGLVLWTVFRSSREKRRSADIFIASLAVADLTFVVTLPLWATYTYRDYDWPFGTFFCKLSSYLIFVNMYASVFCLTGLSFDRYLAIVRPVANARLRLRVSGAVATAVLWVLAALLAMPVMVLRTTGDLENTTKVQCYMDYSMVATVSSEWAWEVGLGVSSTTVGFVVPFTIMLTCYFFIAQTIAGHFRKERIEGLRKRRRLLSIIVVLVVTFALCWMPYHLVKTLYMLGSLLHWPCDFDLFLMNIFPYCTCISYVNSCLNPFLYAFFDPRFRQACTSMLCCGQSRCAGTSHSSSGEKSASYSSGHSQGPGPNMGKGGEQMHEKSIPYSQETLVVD
Protocol: Equilibrium was broken by centrifugation (20,000 g for 10 min, 4° C.). Pellets were washed with Tris-HCl buffer (50 mmol/L, pH 7.4, 4° C.), re-centrifuged and bound radioactivity in the final pellets counted. Data from triplicate experiments were analysed using the iterative non-linear curve fitting programs EBDA and LIGAND (KELL package, Biosoft, UK) or GraphPad Prism 6 to derive values of affinity (expressed as either the equilibrium dissociation constant KD or the negative log10 of the dissociation constant, pKi±sem) and receptor density (BMAX±sem in fmoles bound per mg protein).

human apelin receptor [2] = molecular target: T1, human apelin receptor; assay: DRx β-arrestin assay (PathHunter eXpress AGTRL1 CHO-K1); type: cell-based; design: host or cells: CHO-K1; details: for Kb: DRx β-Arrestin pA2
Protocol: (§1) cAMP (cAMP Hunter™ eXpress AGTRL1 CHO-K1 GPCR Assay, DiscoverX Corporation, Ltd. Birmingham, UK) and β-arrestin (PathHunter® eXpress AGTRL1 CHO-K1 β-Arrestin GPCR Assay, DiscoverX Corporation, Ltd. Birmingham, UK) assays were performed according to the manufacturer's instructions. The cAMP assay measures the canonical signalling pathway through the G-protein. The β-arrestin assay measures the alternative signalling pathway and receptor internalisation.
For recruitment of β-arrestin, CHO-K1 cells artificially expressing the human apelin receptor were seeded in Cell Plating medium into 96-well plates and incubated for 48 hours at 37° C. in 5% CO2. Concentration response curves were constructed to test peptides (1 pmol/L-30 μmol/L) which were diluted in Cell Plating medium and added to the cells for 90 minutes at 37° C. If no response was obtained then test peptides were investigated as antagonists. […] Detection reagents were then added for a 2-hour incubation at room temperature. […] If no agonist response was obtained, test compounds were investigated for antagonist activity by repeating [Pyr]apelin-13 concentration response curves in the absence and presence of a single concentration (1-30 μmol/L of test peptide). Data were analysed as described for the cAMP assay using the Gaddum/Schild EC50 function in GraphPad Prism 6 to determine values of pA2.

human apelin receptor [3] = molecular target: T1, human apelin receptor; assay: Cerep radioligand binding assay on CHO-K1 cells expressing the human apelin receptor; design: host or cells: CHO-K1
Protocol: Binding assays were performed by Cerep (Celle L'Evescault, France) on Chinese Hamster Ovary (CHO-K1) cells expressing the human apelin receptor. […] The results were expressed as a percent of control specific binding ((measured specific binding/control specific binding)×100) and as a percent inhibition of control specific binding (100−((measured specific binding/control specific binding)×100)) obtained in the presence of the test compounds. […] The inhibition constants (Ki) were calculated using the Cheng Prusoff equation (Ki=IC50/(1+(L/KD)), where L=concentration of radioligand in the assay, and KD=equilibrium dissociation constant of the radioligand for the receptor).

[4] = test system: endothelium-denuded saphenous vein; details: human tissue, ref. [15]; cited from earlier work
human apelin receptor [5] = molecular target: T1, human apelin receptor; details: human cardiac tissue, ref. [15]; cited from earlier work
human apelin receptor [6] = molecular target: T1, human apelin receptor; assay: DRx cAMP assay (cAMP Hunter eXpress AGTRL1 CHO-K1), forskolin-induced cAMP accumulation; type: cell-based; design: host or cells: CHO-K1; details: for Kb: DRx cAMP pA2, antagonism of [Pyr1]apelin-13 inhibition of forskolin-stimulated cAMP; for DRx cAMP pA2: antagonism of [Pyr1]apelin-13 inhibition of forskolin-stimulated cAMP
Protocol: Antagonist activity at the apelin receptor was measured in two assays.
as §1
Cells were then incubated with a mixture of Lysis Buffer, cAMP Buffer D and Detection Reagents for 1 hour at room temperature, followed by a 3 hour incubation with cAMP Reagent A at room temperature. Chemiluminescence was read using the LumiLITE™ Microplate Reader (DiscoverX). Concentration-response data for agonists, measured in relative light units (RLU), were analysed using a 4 parameter logistic equation in GraphPad Prism 6 (La Jolla, CA, USA) to determine values of potency expressed as the pD2 value (negative logo of the EC50 (where EC50 is the concentration producing half maximal response)), and maximum response (EMAX). Mean data from replicate experiments were normalised as percentage inhibition of forskolin-stimulated cAMP production.

[7] = [Glp65,Nle75,Tyr77][125I]apelin-13, read-out: Ki (binding affinity at the apelin receptor, Cerep)

## CC(C)C[C@@H]1NC(=O)[C@H](CCCNC(=N)N)NC(=O)[C@@H]2CCCN2C(=O)[C@H](CCCNC(=N)N)NC(=O)[C@@H](NC(=O)[C@H](Cc2c[nH]cn2)NC(=O)[C@H](CCCCN)NC(=O)[C@@H]2CSSC[C@H](N)C(=O)N[C@@H](CCCNC(=N)N)C(=O)N3CCC[C@H]3C(=O)N[C@@H](CCCNC(=N)N)C(=O)N[C@@H](CC(C)C)C(=O)N2)CSSC[C@@H](C(=O)O)NC1=O [MM54, cyclo(1-6)CRPRLC-KH-cyclo(9-14)CRPRLC] (H-CRPRLCKHCRPRLC-OH; disulfide 1-6, 9-14; N-terminus and C-terminus assumed)
glioblastoma; model of glioblastoma
  combination with the anti-cancer compound tomozolomide: synergistic properties
glioblastoma
  anti-tumor / anti-cancer effects in glioblastoma: anti-tumor properties
Human forearm
  functional activity in human forearm studies: functional agonist activity indicated by vasodilation
Human apelin receptor [1]; HLV pKi
  pKi: 6.56 and 6.45
Human apelin receptor [2]
  DRx β-Arrestin pA2: 6.63
  Kb: 117 nM and 234 nM
Human apelin receptor [3]; Ki (binding affinity at the apelin receptor, Cerep), [Glp65,Nle75,Tyr77][125I]apelin-13
  pKi: 7.09

## Apelin-13(F13A): apelin-13 analogue reported as a functional antagonist, may act as an apelin receptor agonist in vitro
[4]
  constriction of endothelium-denuded saphenous vein: effectively constricts
Human apelin receptor [5]
  competition for binding with [125I]-(Pyr1)apelin-13 in the left ventricle: competes for binding

## CCCC[C@H](NC(=O)[C@H](CCCNC(=N)N)NC(=O)C(C)(C)NC(=O)[C@H](CCCNC(=N)N)NC(=O)[C@H](CC)NC(=O)[C@H](Cc1c[nH]cn1)NC(=O)[C@H](CCCCN)NC(=O)[C@H](CS)NC(=O)[C@H](CCCC)NC(=O)[C@H](CCCNC(=N)N)NC(=O)[C@@H]1CCCN1C(=O)[C@H](CCCNC(=N)N)NC(=O)[C@@H](N)CS)C(=O)N[C@@H](Cc1cc(F)c(F)c(F)c1)C(=O)O [MM299, CRPR-Nle-CKH-Abu-R-Aib-R-Nle-(3,4,5-trifluorophenylalanine)] (H-CRPR[Nle]CKH[Abu]R[Aib]R[Nle][Phe(3,4,5-F3)]-OH)
Human apelin receptor [6]
  Kb: 47.9 nM and 112 nM
Human apelin receptor [2]
  Kb: 7.94 nM and 2.95 nM
Human apelin receptor [3]; [7]
  pKi: 8.21

## CCCCCCCCCCCCCC(=O)N[C@@H](CS)C(=O)N[C@@H](CCCNC(=N)N)C(=O)N1CCC[C@H]1C(=O)N[C@@H](CCCNC(=N)N)C(=O)N[C@@H](CCCC)C(=O)N[C@@H](CS)C(=O)N[C@@H](CCCCN)C(=O)N[C@@H](Cc1c[nH]cn1)C(=O)N[C@@H](CS)C(=O)N[C@@H](CCCNC(=N)N)C(=O)NC(C)(C)C(=O)N[C@@H](CCCNC(=N)N)C(=O)N[C@@H](CCCC)C(=O)N[C@@H](Cc1cc(F)c(F)c(F)c1)C(=O)O [MM300, Myristoyl-CRPR-Nle-CKHCR-Aib-R-Nle-(3,4,5-trifluorophenylalanine)] (Myristoyl-CRPR[Nle]CKHCR[Aib]R[Nle][Phe(3,4,5-F3)]-OH; C-terminus assumed)
Human apelin receptor [6]
  DRx cAMP pA2: 9.66
Human apelin receptor [2]
  DRx β-Arrestin pA2: 8.96
  Kb: 1.1 nM and 3.16 nM
Human apelin receptor [2]; comparison of β-arrestin and cAMP pA2 of Table 3
  bias between cAMP and β-arrestin pathway inhibition: bias towards either C-AMP
Human apelin receptor [3]; [7]
  pKi: 7.89

## CCCC[C@H](NC(=O)[C@H](CCCNC(=N)N)NC(=O)C(C)(C)NC(=O)[C@H](CCCNC(=N)N)NC(=O)[C@H](CS)NC(=O)[C@H](Cc1c[nH]cn1)NC(=O)[C@H](CCCCN)NC(=O)[C@H](CS)NC(=O)[C@H](CCCC)NC(=O)[C@H](CCCNC(=N)N)NC(=O)[C@@H]1CCCN1C(=O)[C@H](CCCNC(=N)N)NC(=O)[C@@H](N)CCC(N)=O)C(=O)N[C@@H](Cc1cc(F)c(F)c(F)c1)C(=O)O [MM262, QRPR-Nle-CKHCR-Aib-R-Nle-(3,4,5-trifluorophenylalanine)] (H-QRPR[Nle]CKHCR[Aib]R[Nle][Phe(3,4,5-F3)]-OH)
Human apelin receptor [6]
  Kb: 447 nM and 135 nM
Human apelin receptor [2]
  Kb: 29.5 nM
Human apelin receptor [2]; cho-k1 cells, 90 min
  DRx β-Arrestin pA2: pA2 = 7.53
Human apelin receptor [3]; [7]
  pKi: 7.47

## CCCC[C@H](NC(=O)[C@H](CCCNC(=N)N)NC(=O)C(C)(C)NC(=O)[C@H](CCCNC(=N)N)NC(=O)[C@H](CS)NC(=O)[C@H](Cc1c[nH]cn1)NC(=O)[C@H](CCCCN)NC(=O)[C@H](CS)NC(=O)[C@H](CCCC)NC(=O)[C@H](CCCNC(=N)N)NC(=O)[C@@H]1CCCN1C(=O)[C@H](CCCNC(=N)N)NC(=O)[C@@H](N)CS)C(=O)N[C@@H](Cc1cc(F)c(F)c(F)c1)C(=O)O [MM193, CRPR-Nle-CKHCR-Aib-R-Nle-(3,4,5-trifluorophenylalanine)] (H-CRPR[Nle]CKHCR[Aib]R[Nle][Phe(3,4,5-F3)]-OH)
glioblastoma
  anti-tumor / anti-cancer effects in glioblastoma: significant anti-cancer effects
Human apelin receptor [1]; read-out: HLV pKi (converted)
  Ki: 759 nM
Human apelin receptor [6]; 1 μM, FIG. 1b
  antagonism of [pyr1]apelin-13 inhibition of forskolin stimulated cAMP accumulation: antagonised by addition of MM193 in a competitive manner
Human apelin receptor [6]
  Kb: 42.7 nM and 77.6 nM
  DRx cAMP pA2: 7.37
Human apelin receptor [2]
  DRx β-Arrestin pA2: 7.68
  Kb: 20.9 nM
Human apelin receptor [2]; 1 μM, FIG. 1a
  antagonism of [pyr1]apelin-13 mediated β-arrestin recruitment: antagonised by addition of MM193 in a competitive manner
Human apelin receptor [2]; cho-k1 cells, 90 min
  DRx β-Arrestin pA2: pA2 = 7.68
Human apelin receptor [3]; [7]
  pKi: 7.72
